Tests used:
Type in all cases: cell-based
CCRF-CEM = experiment: NCI60 growth inhibition, CCRF-CEM; conditions: Leukemia
Protocol: (§1) Representative compounds were tested in 60 cell lines (NCI60) at the National Cancer Institute, Developmental Therapeutics Program.
(§2) Representative compounds were tested in a panel of 60 cancer cells (NCI 60) at the National Cancer Institute. Growth inhibition are shown in table 2, table 3, table 4, table 5, and FIG. 1, FIG. 2, FIG. 3, FIG. 4, FIG. 5.

HL-60(TB) = experiment: NCI60 growth inhibition, HL-60(TB); conditions: Leukemia
Protocol: as §1, §2

K-562 = experiment: NCI60 growth inhibition, K-562; conditions: Leukemia
Protocol: as §1, §2

MOLT-4 = experiment: NCI60 growth inhibition, MOLT-4; conditions: Leukemia
Protocol: as §1, §2

RPMI-8226 = experiment: NCI60 growth inhibition, RPMI-8226; conditions: Leukemia
Protocol: as §1, §2

SR = experiment: NCI60 growth inhibition, SR; conditions: Leukemia
Protocol: as §1, §2

A549/ATCC = experiment: NCI60 growth inhibition, A549/ATCC; conditions: Non-Small Cell Lung Cancer
Protocol: as §1, §2

EKVX = experiment: NCI60 growth inhibition, EKVX; conditions: Non-Small Cell Lung Cancer
Protocol: as §1, §2

HOP-62 = experiment: NCI60 growth inhibition, HOP-62; conditions: Non-Small Cell Lung Cancer; also: test concentration or dose not given here
Protocol: as §1, §2

HOP-92 = experiment: NCI60 growth inhibition, HOP-92; conditions: Non-Small Cell Lung Cancer
Protocol: as §1, §2

NCI-H226 = experiment: NCI60 growth inhibition, NCI-H226; conditions: Non-Small Cell Lung Cancer; also: test concentration or dose not given here
Protocol: as §1, §2

NCI-H23 = experiment: NCI60 growth inhibition, NCI-H23; conditions: Non-Small Cell Lung Cancer
Protocol: as §1, §2

NCI-H322M = experiment: NCI60 growth inhibition, NCI-H322M; conditions: Non-Small Cell Lung Cancer
Protocol: as §1, §2

NCI-H460 = experiment: NCI60 growth inhibition, NCI-H460; conditions: Non-Small Cell Lung Cancer
Protocol: as §1, §2

NCI-H522 = experiment: NCI60 growth inhibition, NCI-H522; conditions: Non-Small Cell Lung Cancer
Protocol: as §1, §2

COLO 205 = experiment: NCI60 growth inhibition, COLO 205; conditions: Colon Cancer
Protocol: as §1, §2

HCC-2998 = experiment: NCI60 growth inhibition, HCC-2998; conditions: Colon Cancer
Protocol: as §1, §2

HCT-116 = experiment: NCI60 growth inhibition, HCT-116; conditions: Colon Cancer
Protocol: as §1, §2

HCT-15 = experiment: NCI60 growth inhibition, HCT-15; conditions: Colon Cancer; also: test concentration or dose not given here
Protocol: as §1, §2

HT29 = experiment: NCI60 growth inhibition, HT29; conditions: Colon Cancer
Protocol: as §1, §2

KM12 = experiment: NCI60 growth inhibition, KM12; conditions: Colon Cancer; also: test concentration or dose not given here
Protocol: as §1, §2

SW-620 = experiment: NCI60 growth inhibition, SW-620; conditions: Colon Cancer; also: test concentration or dose not given here
Protocol: as §1, §2

SF-268 = experiment: NCI60 growth inhibition, SF-268; conditions: CNS Cancer; also: test concentration or dose not given here
Protocol: as §1, §2

SF-295 = experiment: NCI60 growth inhibition, SF-295; conditions: CNS Cancer; also: test concentration or dose not given here
Protocol: as §1, §2

SF-539 = experiment: NCI60 growth inhibition, SF-539; conditions: CNS Cancer
Protocol: as §1, §2

SNB-19 = experiment: NCI60 growth inhibition, SNB-19; conditions: CNS Cancer; also: test concentration or dose not given here
Protocol: as §1, §2

SNB-75 = experiment: NCI60 growth inhibition, SNB-75; conditions: CNS Cancer; also: test concentration or dose not given here
Protocol: as §1, §2

U251 = experiment: NCI60 growth inhibition, U251; conditions: CNS Cancer
Protocol: as §1, §2

LOX IMVI = experiment: NCI60 growth inhibition, LOX IMVI; conditions: Melanoma
Protocol: as §1, §2

MALME-3M = experiment: NCI60 growth inhibition, MALME-3M; conditions: Melanoma
Protocol: as §1, §2

M14 = experiment: NCI60 growth inhibition, M14; conditions: Melanoma
Protocol: as §1, §2

MDA-MB-435 = experiment: NCI60 growth inhibition, MDA-MB-435; conditions: Melanoma
Protocol: as §1, §2

SK-MEL-2 = experiment: NCI60 growth inhibition, SK-MEL-2; conditions: Melanoma; also: test concentration or dose not given here
Protocol: as §1, §2

SK-MEL-28 = experiment: NCI60 growth inhibition, SK-MEL-28; conditions: Melanoma
Protocol: as §1, §2

SK-MEL-5 = experiment: NCI60 growth inhibition, SK-MEL-5; conditions: Melanoma
Protocol: as §1, §2

UACC-257 = experiment: NCI60 growth inhibition, UACC-257; conditions: Melanoma; also: test concentration or dose not given here
Protocol: as §1, §2

UACC-62 = experiment: NCI60 growth inhibition, UACC-62; conditions: Melanoma; also: test concentration or dose not given here
Protocol: as §1, §2

IGROV1 = experiment: NCI60 growth inhibition, IGROV1; conditions: Ovarian Cancer
Protocol: as §1, §2

OVCAR-3 = experiment: NCI60 growth inhibition, OVCAR-3; conditions: Ovarian Cancer
Protocol: as §1, §2

OVCAR-4 = experiment: NCI60 growth inhibition, OVCAR-4; conditions: Ovarian Cancer; also: test concentration or dose not given here
Protocol: as §1, §2

OVCAR-5 = experiment: NCI60 growth inhibition, OVCAR-5; conditions: Ovarian Cancer
Protocol: as §1, §2

NCI/ADR-RES = experiment: NCI60 growth inhibition, NCI/ADR-RES; conditions: Ovarian Cancer
Protocol: as §1, §2

SK-OV-3 = experiment: NCI60 growth inhibition, SK-OV-3; conditions: Ovarian Cancer
Protocol: as §1, §2

786-0 = experiment: NCI60 growth inhibition, 786-0; conditions: Renal Cancer
Protocol: as §1, §2

A498 = experiment: NCI60 growth inhibition, A498; conditions: Renal Cancer; also: test concentration or dose not given here
Protocol: as §1, §2

ACHN = experiment: NCI60 growth inhibition, ACHN; conditions: Renal Cancer
Protocol: as §1, §2

CAKI-1 = experiment: NCI60 growth inhibition, CAKI-1; conditions: Renal Cancer; also: test concentration or dose not given here
Protocol: as §1, §2

SN12C = experiment: NCI60 growth inhibition, SN12C; conditions: Renal Cancer
Protocol: as §1, §2

TK-10 = experiment: NCI60 growth inhibition, TK-10; conditions: Renal Cancer
Protocol: as §1, §2

UO-31 = experiment: NCI60 growth inhibition, UO-31; conditions: Renal Cancer
Protocol: as §1, §2

PC-3 = experiment: NCI60 growth inhibition, PC-3; conditions: Prostate Cancer
Protocol: as §1, §2

DU-145 = experiment: NCI60 growth inhibition, DU-145; conditions: Prostate Cancer
Protocol: as §1, §2

MCF7 = experiment: NCI60 growth inhibition, MCF7; conditions: Breast Cancer
Protocol: as §1, §2

MDA-MB-231/ATCC = experiment: NCI60 growth inhibition, MDA-MB-231/ATCC; conditions: Breast Cancer
Protocol: as §1, §2

HS 578T = experiment: NCI60 growth inhibition, HS 578T; conditions: Breast Cancer
Protocol: as §1, §2

BT-549 = experiment: NCI60 growth inhibition, BT-549; conditions: Breast Cancer
Protocol: as §1, §2

T-47D = experiment: NCI60 growth inhibition, T-47D; conditions: Breast Cancer
Protocol: as §1, §2

MDA-MB-468 = experiment: NCI60 growth inhibition, MDA-MB-468; conditions: Breast Cancer; also: test concentration or dose not given here
Protocol: as §1, §2

Compound: CN1CCN(c2cc(F)c(NC3=C(Cl)C(=O)c4ncccc4C3=O)c(F)c2)CC1 [Compound 1, 7-chloro-6-((2,6-difluoro-4-(4-methylpiperazin-1-yl)phenyl)amino)quinoline-5,8-dione]
- Growth inhibition (% control) GIPRCNT (CCRF-CEM): −18.2389 % control
- Growth inhibition (% control) GIPRCNT (HL-60(TB)): −26.4294 % control
- Growth inhibition (% control) GIPRCNT (K-562): −0.8345 % control
- Growth inhibition (% control) GIPRCNT (MOLT-4): −22.6883 % control
- Growth inhibition (% control) GIPRCNT (RPMI-8226): −20.7257 % control
- Growth inhibition (% control) GIPRCNT (SR): −0.8134 % control
- Growth inhibition (% control) GIPRCNT (A549/ATCC): 74.56 % control
- Growth inhibition (% control) GIPRCNT (EKVX): −82.6636 % control
- Growth inhibition (% control) GIPRCNT (HOP-62): 83.28 % control
- Growth inhibition (% control) GIPRCNT (HOP-92): −79.9407 % control
- Growth inhibition (% control) GIPRCNT (NCI-H226): 85.32 % control
- Growth inhibition (% control) GIPRCNT (NCI-H23): −61.2055 % control
- Growth inhibition (% control) GIPRCNT (NCI-H322M): 101.8249 % control
- Growth inhibition (% control) GIPRCNT (NCI-H460): 9.912 % control
- Growth inhibition (% control) GIPRCNT (NCI-H522): −59.746 % control
- Growth inhibition (% control) GIPRCNT (COLO 205): 33.98 % control
- Growth inhibition (% control) GIPRCNT (HCC-2998): 61.85 % control
- Growth inhibition (% control) GIPRCNT (HCT-116): −69.7462 % control
- Growth inhibition (% control) GIPRCNT (HCT-15): −8.531 % control
- Growth inhibition (% control) GIPRCNT (HT29): 11.1525 % control
- Growth inhibition (% control) GIPRCNT (KM12): 82.37 % control
- Growth inhibition (% control) GIPRCNT (SW-620): −76.6429 % control
- Growth inhibition (% control) GIPRCNT (SF-268): 48.73 % control
- Growth inhibition (% control) GIPRCNT (SF-295): 78.81 % control
- Growth inhibition (% control) GIPRCNT (SF-539): −25.0889 % control
- Growth inhibition (% control) GIPRCNT (SNB-19): 96.33 % control
- Growth inhibition (% control) GIPRCNT (SNB-75): 38.01 % control
- Growth inhibition (% control) GIPRCNT (U251): −9.877 % control
- Growth inhibition (% control) GIPRCNT (LOX IMVI): −70.2674 % control
- Growth inhibition (% control) GIPRCNT (MALME-3M): −96.0656 % control
- Growth inhibition (% control) GIPRCNT (M14): −40.5376 % control
- Growth inhibition (% control) GIPRCNT (MDA-MB-435): −75.7981 % control
- Growth inhibition (% control) GIPRCNT (SK-MEL-2): −49.6035 % control
- Growth inhibition (% control) GIPRCNT (SK-MEL-28): −55.0718 % control
- Growth inhibition (% control) GIPRCNT (SK-MEL-5): −91.7268 % control
- Growth inhibition (% control) GIPRCNT (UACC-257): −62.2412 % control
- Growth inhibition (% control) GIPRCNT (UACC-62): −45.6278 % control
- Growth inhibition (% control) GIPRCNT (IGROV1): −90.4429 % control
- Growth inhibition (% control) GIPRCNT (OVCAR-3): −98.2241 % control
- Growth inhibition (% control) GIPRCNT (OVCAR-4): −99.2407 % control
- Growth inhibition (% control) GIPRCNT (OVCAR-5): −59.8079 % control
- Growth inhibition (% control) GIPRCNT (NCI/ADR-RES): 37.87 % control
- Growth inhibition (% control) GIPRCNT (SK-OV-3): 82.67 % control
- Growth inhibition (% control) GIPRCNT (786-0): −72.0362 % control
- Growth inhibition (% control) GIPRCNT (A498): 80.11 % control
- Growth inhibition (% control) GIPRCNT (ACHN): −93.058 % control
- Growth inhibition (% control) GIPRCNT (CAKI-1): −85.6094 % control
- Growth inhibition (% control) GIPRCNT (SN12C): −97.4828 % control
- Growth inhibition (% control) GIPRCNT (TK-10): 8.462 % control
- Growth inhibition (% control) GIPRCNT (UO-31): −100 % control
- Growth inhibition (% control) GIPRCNT (PC-3): 11.83 % control
- Growth inhibition (% control) GIPRCNT (DU-145): −67.5681 % control
- Growth inhibition (% control) GIPRCNT (MCF7): −58.1831 % control
- Growth inhibition (% control) GIPRCNT (MDA-MB-231/ATCC): −31.9795 % control
- Growth inhibition (% control) GIPRCNT (HS 578T): −16.4793 % control
- Growth inhibition (% control) GIPRCNT (BT-549): 80.52 % control
- Growth inhibition (% control) GIPRCNT (T-47D): −32.5382 % control
- Growth inhibition (% control) GIPRCNT (MDA-MB-468): −73.911 % control
